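Exposure lasted 48 hours, with cells grown in 96-well plates and compounds tested at five concentrations. Definition used: TGI = concentration required for complete inhibition of growth.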
Key:
Assay in all cases: NCI tumour cell line growth inhibition, 48 h
[1] = system: XF 498 CNS
[2] = system: P388 leukemia
[3] = system: DMS 273 small cell lung
[4] = system: M19-MEL melanoma
[5] = system: HOP-18 NSCLC
[6] = system: DMS 114 small cell lung
[7] = system: SN12K1 renal
[8] = system: P388/ADR leukemia
[9] = system: RXF-631 renal

Compound	TGI [1]	TGI [2]	TGI [3]	TGI [4]	TGI [5]	TGI [6]	TGI [7]	TGI [8]	TGI [9]
CC1(CO)C(O)CCC2(C)C1C(O)CC1CC3CC12CCC3(O)CO (centres undefined)	> 225 µM	> 22.5 µM	> 199 µM	> 153 µM	> 225 µM	> 225 µM	> 225 µM	> 225 µM	
C1=Nc2ccccc2Cn2nncc21	> 100 µM			> 100 µM	> 100 µM				
CC(C)NC(=O)OCc1nnn2c1CCC2	> 100 µM			> 100 µM					
OC(c1ccccc1)C1CC2C=CC1C2 (centres undefined)	> 100 µM		> 100 µM	> 100 µM		> 100 µM			> 100 µM
COc1cc(/C=N/N=C(\N)NO)ccc1O						> 100 µM			
